{
  "source": "BindingDB's records for doi:10.1016/j.bioorg.2016.01.004",
  "about": "(University of Karachi, 2016)",
  "key": {"Acetylcholinesterase": {"target": "Acetylcholinesterase (Electrophorus electricus, UniProt O42275)", "sequence (O42275 whole entry)": "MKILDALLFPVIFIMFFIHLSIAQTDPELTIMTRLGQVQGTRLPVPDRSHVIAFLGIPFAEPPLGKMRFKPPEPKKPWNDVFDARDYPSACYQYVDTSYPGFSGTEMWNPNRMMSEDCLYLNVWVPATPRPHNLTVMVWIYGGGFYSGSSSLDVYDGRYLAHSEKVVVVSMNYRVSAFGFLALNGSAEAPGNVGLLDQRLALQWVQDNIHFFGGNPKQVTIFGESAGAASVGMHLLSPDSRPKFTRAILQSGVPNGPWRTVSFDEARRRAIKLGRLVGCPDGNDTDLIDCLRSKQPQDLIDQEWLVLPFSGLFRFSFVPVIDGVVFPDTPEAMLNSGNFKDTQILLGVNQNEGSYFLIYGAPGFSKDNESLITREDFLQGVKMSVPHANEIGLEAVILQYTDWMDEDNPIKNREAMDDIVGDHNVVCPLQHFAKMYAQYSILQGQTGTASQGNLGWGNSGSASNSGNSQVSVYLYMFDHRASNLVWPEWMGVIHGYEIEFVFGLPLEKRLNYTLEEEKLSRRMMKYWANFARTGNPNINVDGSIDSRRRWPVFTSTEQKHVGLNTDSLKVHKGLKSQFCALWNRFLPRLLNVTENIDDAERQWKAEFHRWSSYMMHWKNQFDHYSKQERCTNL", "assay": "AChE and BChE Inhibition Activity", "conditions": "pH 8", "protocol": "(§1) Inhibitory activities of AChE and BChE were evaluated by using the Ellman's method [34]. […] For initial screening each compound was dissolved in DMSO (end concentration of DMSO was less than 1% in assay) and tested at a final concentration of 0.5 mM. The compounds with considerable inhibition (more than 50%) were subjected to further analysis by making their 8 to 10 serial dilutions in assay buffer (50 mM Tris-HCl, 0.1 M NaCl and 0.02 M MgCl2, pH 8.0). Reaction mixture comprised of 20 µL assay buffer, 10 µL of test compound, 10 µL of 0.031 U/mL of enzyme (0.5 and 3.4 U/mg of AChE or BuChE respectively). This mixture was incubated at 25 °C for 10 min. After this preincubation, enzymatic reaction was started by addition of 10 µL of 1 mM acetylethiocholine iodide or butyrylthiocholine chloride (depending on the enzyme) and the mixture was incubated again for 15 min. The amount of enzymatic product was esti"}, "[1]": {"target": "Carboxylic ester hydrolase (Equus caballus, UniProt Q9N1N9)", "sequence (Q9N1N9 whole entry)": "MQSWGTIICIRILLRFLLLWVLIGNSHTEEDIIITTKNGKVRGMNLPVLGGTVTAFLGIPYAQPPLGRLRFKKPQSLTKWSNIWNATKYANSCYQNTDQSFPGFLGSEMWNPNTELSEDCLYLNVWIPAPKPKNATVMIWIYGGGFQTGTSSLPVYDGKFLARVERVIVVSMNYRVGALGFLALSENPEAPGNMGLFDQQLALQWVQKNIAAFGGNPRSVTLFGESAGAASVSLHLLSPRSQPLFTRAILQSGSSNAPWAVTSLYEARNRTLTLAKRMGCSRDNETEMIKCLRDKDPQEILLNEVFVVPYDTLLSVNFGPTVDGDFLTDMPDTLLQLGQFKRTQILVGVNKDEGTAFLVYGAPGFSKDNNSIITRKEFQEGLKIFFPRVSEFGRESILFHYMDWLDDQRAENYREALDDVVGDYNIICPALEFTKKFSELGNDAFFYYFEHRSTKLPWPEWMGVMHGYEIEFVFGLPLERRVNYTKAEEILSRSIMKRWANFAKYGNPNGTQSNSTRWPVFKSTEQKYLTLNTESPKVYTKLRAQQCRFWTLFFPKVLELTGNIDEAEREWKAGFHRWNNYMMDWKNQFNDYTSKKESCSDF", "assay": "AChE and BChE Inhibition Activity", "conditions": "pH 8", "protocol": "as §1"}},
  "data": [
    {"compound": "Cc1cccc(C2=C(C#N)C(=C(C#N)c3nnn[nH]3)NC(C)(c3cccc(C)c3)C2)c1", "note": "(centres undefined) [2-(Cyano(1H-tetrazol-5-yl)methylene)-6-methyl-4,6-bis(3'/3''-methylphenyl)-1,2,5,6-tetrahydronicotinonitrile (2c)]", "values": [
      {"measurement": "IC50", "setting": "Acetylcholinesterase", "value": 20.8, "unit": "µM"},
      {"measurement": "IC50", "setting": "[1]", "value": 62.2, "unit": "µM"}
    ]},
    {"compound": "CC1(c2ccc(O)cc2)CC(c2ccc(O)cc2)=C(C#N)C(=C(C#N)C#N)N1", "note": "(centres undefined) [2-[3-cyano-4,6-bis(4-hydroxyphenyl)-6-methyl-1,2,5,6-tetrahydropyridin-2-ylidene]propanedinitrile (5h)]", "values": [
      {"measurement": "IC50", "setting": "Acetylcholinesterase", "value": 5.38, "unit": "µM"},
      {"measurement": "IC50", "setting": "[1]", "value": 42.2, "unit": "µM"}
    ]},
    {"compound": "CN(C)C(=O)Oc1cccc([N+](C)(C)C)c1", "note": "[m-Trimethylammoniumphenyldimethylcarbamate]", "values": [
      {"measurement": "IC50", "setting": "Acetylcholinesterase", "value": 19.3, "unit": "µM"},
      {"measurement": "IC50", "setting": "[1]", "value": 43.2, "unit": "µM"}
    ]},
    {"compound": "CC1(c2ccc(F)cc2)CC(c2ccc(F)cc2)=C(C#N)C(=C(C#N)C#N)N1", "note": "(centres undefined) [2-[3-cyano-4,6-bis(4-fluorophenyl)-6-methyl-1,2,5,6-tetrahydropyridin-2-ylidene]propanedinitrile (5d)]", "values": [
      {"measurement": "IC50", "setting": "Acetylcholinesterase", "value": 11.9, "unit": "µM"},
      {"measurement": "IC50", "setting": "[1]", "value": 55.2, "unit": "µM"}
    ]},
    {"compound": "COc1cccc(C2=C(C#N)C(=C(C#N)c3nnn[nH]3)NC(C)(c3cccc(OC)c3)C2)c1", "note": "(centres undefined) [2-(Cyano(1H-tetrazol-5-yl)methylene)-6-methyl-4,6-bis(3'/3''-methoxyphenyl)-1,2,5,6-tetrahydronicotinonitrile (2f)]", "values": [
      {"measurement": "IC50", "setting": "Acetylcholinesterase", "value": 5.11, "unit": "µM"},
      {"measurement": "IC50", "setting": "[1]", "value": 39.2, "unit": "µM"}
    ]},
    {"compound": "CC1(c2ccccc2)CC(c2ccccc2)=C(C#N)C(=C(C#N)C#N)N1", "note": "(centres undefined) [2-Dicyanomethylene-6-methyl-4,6-bis(phenyl)-1,2,5,6-tetrahydronicotinonitrile (5a)]", "values": [
      {"measurement": "IC50", "setting": "Acetylcholinesterase", "value": 20.3, "unit": "µM"},
      {"measurement": "IC50", "setting": "[1]", "value": 48.1, "unit": "µM"}
    ]},
    {"compound": "CC1(c2ccccc2)CC(c2ccccc2)=C(C#N)C(=C(C#N)c2nnn[nH]2)N1", "note": "(centres undefined) [2-(Cyano(1H-tetrazol-5-yl)methylene)-6-methyl-4,6-bis(phenyl)-1,2,5,6-tetrahydronicotinonitrile (2a)]", "values": [
      {"measurement": "IC50", "setting": "Acetylcholinesterase", "value": 7.02, "unit": "µM"},
      {"measurement": "IC50", "setting": "[1]", "value": 22.1, "unit": "µM"}
    ]},
    {"compound": "CC1(c2ccc(F)cc2)CC(c2ccc(F)cc2)=C(C#N)C(=C(C#N)c2nnn[nH]2)N1", "note": "(centres undefined) [2-(Cyano(1H-tetrazol-5-yl)methylene)-6-methyl-4,6-bis(4'/4''-fluorophenyl)-1,2,5,6-tetrahydronicotinonitrile (2d)]", "values": [
      {"measurement": "IC50", "setting": "Acetylcholinesterase", "value": 2.01, "unit": "µM"},
      {"measurement": "IC50", "setting": "[1]", "value": 38.8, "unit": "µM"}
    ]},
    {"compound": "Cc1cccc(C2=C(C#N)C(=C(C#N)C#N)NC(C)(c3cccc(C)c3)C2)c1", "note": "(centres undefined) [2-[3-cyano-6-methyl-4,6-bis(3-methylphenyl)-1,2,5,6-tetrahydropyridin-2-ylidene]propanedinitrile (5c)]", "values": [
      {"measurement": "IC50", "setting": "Acetylcholinesterase", "value": 5.21, "unit": "µM"},
      {"measurement": "IC50", "setting": "[1]", "value": 35.9, "unit": "µM"}
    ]},
    {"compound": "CC1(c2ccc(I)cc2)CC(c2ccc(I)cc2)=C(C#N)C(=C(C#N)C#N)N1", "note": "(centres undefined) [2-[3-cyano-4,6-bis(4-iodophenyl)-6-methyl-1,2,5,6-tetrahydropyridin-2-ylidene]propanedinitrile (5e)]", "values": [
      {"measurement": "IC50", "setting": "Acetylcholinesterase", "value": 11.2, "unit": "µM"},
      {"measurement": "IC50", "setting": "[1]", "value": 45.3, "unit": "µM"}
    ]},
    {"compound": "Cc1ccc(C2=C(C#N)C(=C(C#N)c3nnn[nH]3)NC(C)(c3ccc(C)cc3)C2)cc1", "note": "(centres undefined) [2-(Cyano(1H-tetrazol-5-yl)methylene)-6-methyl-4,6-bis(4'/4''-methylphenyl)-1,2,5,6-tetrahydronicotinonitrile (2b)]", "values": [
      {"measurement": "IC50", "setting": "Acetylcholinesterase", "value": 4.45, "unit": "µM"},
      {"measurement": "IC50", "setting": "[1]", "value": 5.87, "unit": "µM"}
    ]},
    {"compound": "COc1ccccc1C1=C(C#N)C(=C(C#N)c2nnn[nH]2)NC(C)(c2ccccc2OC)C1", "note": "(centres undefined) [2-(Cyano(1H-tetrazol-5-yl)methylene)-6-methyl-4,6-bis(2'/2''-methoxyphenyl)-1,2,5,6-tetrahydronicotinonitrile (2g)]", "values": [
      {"measurement": "IC50", "setting": "Acetylcholinesterase", "value": 20.3, "unit": "µM"},
      {"measurement": "IC50", "setting": "[1]", "value": 0.29, "unit": "µM"}
    ]},
    {"compound": "CC1(c2cccc(F)c2)CC(c2cccc(F)c2)=C(C#N)C(=C(C#N)C#N)N1", "note": "(centres undefined) [2-[3-cyano-4,6-bis(3-fluorophenyl)-6-methyl-1,2,5,6-tetrahydropyridin-2-ylidene]propanedinitrile (5f)]", "values": [
      {"measurement": "IC50", "setting": "Acetylcholinesterase", "value": 8.01, "unit": "µM"},
      {"measurement": "IC50", "setting": "[1]", "value": 68.8, "unit": "µM"}
    ]},
    {"compound": "CC1(c2cccc(Cl)c2)CC(c2cccc(Cl)c2)=C(C#N)C(=C(C#N)c2nnn[nH]2)N1", "note": "(centres undefined) [2-(Cyano(1H-tetrazol-5-yl)methylene)-6-methyl-4,6-bis(3'/3''-chlorophenyl)-1,2,5,6-tetrahydronicotinonitrile (2e)]", "values": [
      {"measurement": "IC50", "setting": "Acetylcholinesterase", "value": 2.32, "unit": "µM"},
      {"measurement": "IC50", "setting": "[1]", "value": 2.78, "unit": "µM"}
    ]},
    {"compound": "CC1(c2ccc(O)cc2)CC(c2ccc(O)cc2)=C(C#N)C(=C(C#N)c2nnn[nH]2)N1", "note": "(centres undefined) [2-(Cyano(1H-tetrazol-5-yl)methylene)-6-methyl-4,6-bis(4'/4''-hydroxyphenyl)-1,2,5,6-tetrahydronicotinonitrile (2h)]", "values": [
      {"measurement": "IC50", "setting": "Acetylcholinesterase", "value": 7.42, "unit": "µM"},
      {"measurement": "IC50", "setting": "[1]", "value": 2.45, "unit": "µM"}
    ]},
    {"compound": "Cc1ccc(C2=C(C#N)C(=C(C#N)C#N)NC(C)(c3ccc(C)cc3)C2)cc1", "note": "(centres undefined) [2-[3-cyano-6-methyl-4,6-bis(4-methylphenyl)-1,2,5,6-tetrahydropyridin-2-ylidene]propanedinitrile (5b)]", "values": [
      {"measurement": "IC50", "setting": "Acetylcholinesterase", "value": 16.9, "unit": "µM"},
      {"measurement": "IC50", "setting": "[1]", "value": 36.5, "unit": "µM"}
    ]},
    {"compound": "COc1cccc(C2=C(C#N)C(=C(C#N)C#N)NC(C)(c3cccc(OC)c3)C2)c1", "note": "(centres undefined) [2-[3-cyano-4,6-bis(3-methoxyphenyl)-6-methyl-1,2,5,6-tetrahydropyridin-2-ylidene]propanedinitrile (5g)]", "values": [
      {"measurement": "IC50", "setting": "Acetylcholinesterase", "value": 1.56, "unit": "µM"},
      {"measurement": "IC50", "setting": "[1]", "value": 48.2, "unit": "µM"}
    ]}
  ]
}
